Source: PMC10218704, “A Novel Blood–Brain Barrier-Penetrating and Vascular-Targeting Chimeric Peptide Inhibits Glioma Angiogenesis” (International Journal of Molecular Sciences, 2023)

Assays:
VEGFR-2 = format: binding, human; conditions: peptide 256 and 1000 nmol/L; VEGF-A165 0.5-8 nmol/L; CM5 chip; HBS-EP
Method: To determine the effect of TAT-AT7 in competition with VEGF-A165 binding to VEGFR-2 or NRP-1, the SPR assay was conducted. The whole operation was conducted on a Biacore S200 instrument. The recombinant VEGFR-2 or NRP-1 proteins were firstly immobilized on a CM5 chip by an amine-coupling reaction. VEGF-A165 ligands with gradient concentrations in the absence or presence of different peptides were then flowed over the CM5 chip. The binding of VEGF-A165 ligands to the immobilized recombinant VEGFR-2 or NRP-1 proteins led to an increase of the refractive index on the surface of the chip, which could be converted into the fluctuation of electrical signals in the response (RU). As the concentration of VEGF-A165 was higher, the response value was also higher. However, with the addition of different peptides, the response value decreased to different degrees (Figure 3A and Figure 4A).
(TAT), ATWLPPR (AT7), and […] (TAT-AT7) were synthesized from China Peptides Co., Ltd. (Shanghai, China). The Hoechst 33,258 staining kit, Annexin V-FITC/PI apoptosis detection kit, and BCA protein assay kit were obtained from Beyotime Biotechnology (Nantong, China). The total protein extraction kit was from BestBio (Shanghai, China). The CM5 sensor chip was obtained from GE Healthcare Life Sciences (Uppsala, Sweden). Purified recombinant human VEGFR-2 and NRP-1 receptor proteins were purchased from R&D Systems (Minneapolis, MN, USA). Recombinant human endothelial growth factor-A165 (VEGF-A165) was obtained from PeproTech (Rocky Hill, NJ, USA). Anti-ERK1/2, anti-p-ERK1/2, anti-p-VEGFR-2, anti-AKT, anti-p-AKT, anti-p-SRC, anti-p-FAK, anti-p38 MAPK, anti-p-p38 MAPK, anti-p-PLC-γ, and anti-GAPDH antibodies were purchased from Cell Signaling Technology (Danvers, MA, USA). Anti-VEGFR-2, anti-FAK, and anti-SRC were purchased from Proteintech Group, Inc (Wuhan, China). F-12K medium, heparin, and endothelial cell growth supplement (ECGS) were from Macgene (Beijing, China). DMEM medium and fetal bovine serum (FBS) were obtained from Gibco®, Life Technologies (Carlsbad, CA, USA). […]

[1] = tested on: intracranial U87-mCherry-luc glioma; assay: In vivo anti-glioma study (bioluminescence); set-up: species or system nude mice; conditions: 20 mg/kg/day i.v. (tail vein), 11 days; days 4, 7, 11, 14; n = 5
Method: The orthotopic U87-mCherry-luc glioma-bearing nude mice were randomly assigned to 6 groups (n = 5) according to the bioluminescence intensity of glioma measured on day 4. […] The bioluminescence intensity was measured on days 4, 7, 11, and 14, respectively. Nude mice were weighed daily. On day 15, the mice were sacrificed, and the glioma-bearing brains were harvested. The brain tissues were fixed with 4.0% paraformaldehyde, embedded in paraffin, and cut into slices. The TUNEL staining and CD31 immunohistochemical staining were conducted according to standard histological procedures.

red blood cells = assay: Hemolysis assay; conditions: 2.5–640 μmol/L; 37 °C, 1 h; 540 nm; mouse red blood cells; n = 3
Method: The fresh blood of mice was centrifuged at 2000 r/min for 10 min, and the upper layer of serum was discarded, then mixed with normal saline and centrifuged at 2000 r/min for 10 min, repeated three times, and the supernatant was removed to obtain the lower layer of red blood cells. Then, 1 mL of red blood cells was diluted to 50 mL with normal saline. […] The samples were incubated at 37 °C for 1 h, centrifuged at 2000 r/min for 10 min, and photographed. Light absorption of samples was measured at 540 nm on a microplate reader.
Cell hemolysis rate (%) = (OD experimental group − negative control group)/(OD positive control group − negative control group) × 100%.

NRP-1 [2] = conditions: peptide 1000 nmol/L; VEGF-A165 0.5-8 nmol/L; CM5 chip; HBS-EP
Method: The SPR assay was performed using the Biacore S200 instrument (GE Healthcare, Uppsala, Sweden). Firstly, the CM5 sensor chip was activated with EDC/NHS. Then, the recombinant VEGFR-2 and NRP-1 proteins were immobilized on the surface of the sensor chip according to the operating instructions of amine coupling. VEGF-A165 was diluted to 8, 4, 2, 1, and 0.5 nmol/L in different concentrations of peptide solution dissolved by HBS-EP buffer (0, 0.016, 0.064, 0.256, and 1 μmol/L, respectively). The Kinetics/Affinity program was selected, and the automatic continuous injection program was set. The injection flow rate was 30 μL/min, the injection time was 120 s, and the dissociation time was 220 s. At the same time, zero-concentration injection wells and 0.5 nmol/L repeat-concentration injection wells of VEGF-A165 were set. At the end of each injection, the channels were flushed with glycine-HCl solution for 30 s until response values were returned to baseline.

[3] = tested on: zebrafish embryo intersegmental vessel; assay: Zebrafish embryo intersegmental vessel angiogenesis; format: in vivo; conditions: 25 µmol/L; 24 h; 28 °C; fluorescence microscope; vs control; n = 3
Method: After a certain period, healthy, sexually mature female and male zebrafish were mated in a 1:1 ratio. After 24 h, the fertilized eggs were removed, disinfected, and washed, and then placed in embryo culture water and cultured in an incubator at 28 °C for 24 h. The fertilized eggs were washed with chain enzyme protease E solution (1 mg/mL) to remove the egg membrane on the surface and placed under a microscope to observe and select the normally developing zebrafish embryos, and then placed into a 24-well plate. […] The control group was added with the same volume of embryo culture water, and then placed in an incubator at 28 °C for 24 h. Zebrafish embryos were randomly removed from each group and observed under a fluorescence microscope. The total length of zebrafish internode vessels was calculated and counted.

HUVECs = assay: Annexin V-FITC/PI staining, flow cytometry (apoptosis); format: cell-based, human; conditions: 320 μmol/L, 24 h
Method: HUVECs were seeded into 6-well culture plates (3 × 10^5 cells/well). […] After discarding the supernatant and washing with cold PBS, the cells were fixed in 4% paraformaldehyde and stained with Hoechst 33,258 for 10 min. Then, the cells were washed with cold PBS and observed using an inverted fluorescence microscope. HUVECs were treated with different peptides (the methods were the same as the Hoechst staining). After 24 h, cells were collected by trypsin digestion and washed with PBS. Annexin V-FITC/PI staining was conducted according to the manufacturer’s instructions for the Apoptosis Detection Kit. Briefly, 195 μL of Annexin V-FITC/PI dilution buffer was added to resuspend the cells. Then, 5 μL of Annexin V-FITC and 10 μL of PI staining solutions were added and gently mixed with the cells. After incubation at room temperature in the dark for 10 min, the apoptotic cells were detected by flow cytometry.

NRP-1 [4] = tested on: NRP-1; set-up: method as in 2 sources, ref 21 = [21]; PMID 17983687; doi:10.1016/j.peptides.2007.09.013; 21. Starzec A. Ladam P. Vassy R. Badache S. Bouchemal N. Navaza A. du Penhoat C.H. Perret G.Y. Structure-function analysis of the antiangiogenic ATWLPPR peptide inhibiting VEGF (165) binding to neurop ||| ref 36 = [36]; PMID 11327725; doi:10.1006/bbrc.2001.4790; 36. Jia H. Lohr M. Jezequel S. Davis D. Shaikh S. Selwood D. Zachary I. Cysteine-rich and basic domain HIV-1 Tat peptides inhibit angiogenesis and induce endothelial cell apoptosis Biochem. Biophys. R; conditions: cited from earlier work

## N=C(N)NCCC[C@H](NC(=O)[C@H](CCCNC(=N)N)NC(=O)[C@H](CCCNC(=N)N)NC(=O)[C@H](CCC(N)=O)NC(=O)[C@H](CCCNC(=N)N)NC(=O)[C@H](CCCNC(=N)N)NC(=O)[C@H](CCCCN)NC(=O)[C@H](CCCCN)NC(=O)[C@@H](N)CCCNC(=N)N)C(=O)O [TAT, reference compound]
VEGFR-2
  effect on VEGF-A165 and VEGFR-2 binding (RU): less inhibitory effects on VEGF-A165 and VEGFR-2 binding than TAT-AT7
[1]
  glioma growth (bioluminescence): no significant difference compared to the control group
Red blood cells
  hemolysis: did not cause obvious hemolysis
  hemolysis rate: lower than 5%
NRP-1 [2]
  inhibition of binding of VEGF-A165 and NRP-1: displayed inhibitory effects on the binding of VEGF-A165 and NRP-1, but it did not completely inhibit the binding
[3]
  intersegmental vascular growth: no obvious effect on intersegmental vascular growth
HUVECs; Hoechst and Annexin V-FITC/PI staining
  induction of apoptosis: no obvious effect of promoting apoptosis
HUVECs; mean ± SD, n = 3, control (7.17 ± 1.42)%
  total apoptotic rate (Q1-UR and Q1-LR): 8.94 ± 3.52%

## KKRRQRRRPPQG [HIV-1 Tat-derived peptide]
NRP-1 [4]
  disturbing the cross-linking of VEGF to NRP-1: displayed potency in disturbing the cross-linking of VEGF to NRP-1

## KRRQRRRPPQGNQAHQDPLP [HIV-1 Tat-derived peptide]
NRP-1 [4]
  disturbing the cross-linking of VEGF to NRP-1: displayed potency in disturbing the cross-linking of VEGF to NRP-1

## SYGRKKRRQRRR [HIV-1 Tat-derived peptide]
NRP-1 [4]
  disturbing the cross-linking of VEGF to NRP-1: displayed potency in disturbing the cross-linking of VEGF to NRP-1
